Experiments:
Format in all cases: cell-based, rat
[1] = tested on: spinal motor neurons; assay: Glutamate-induced excitotoxicity of spinal motor neurons; settings: 24 hours, pre-treated 30 minutes, MK801 10 μM, YC-6 different concentrations
Method: Spinal cord was obtained from 15-day pregnant SD rats. The cristae membrane and blood film were removed. The spinal cord tissues of fetal rats is digested with 0.125% trypsin and then centrifuged to collect intermediate layer enriched with motor neurons. Cell debris were removed by centrifugation and cells were adhered by differential velocity adherent technique for 1 h. Suspending spinal motor neurons with slower adhering velocity were collected and seeded. 24 hours following the seeding, Ara-C was added. The Culture medium was replaced on the 3 DIV with L-15 serum free medium, followed by half medium change every 2˜3 days. Experiments were carried out on the 3-5 DIV.
The primary cultured spinal motor neurons at 5 DIV were divided into four groups: control group, glutamate group, MK801+glutamate group, and YC-6+glutamate group. The control group received no treatment. The glutamate group was treated with […] glutamate. The MK801 group and the YC-6 group were pre-treated with MK801 (10 μM) and YC-6 with different concentrations, respectively, followed by incubation at 37° C. for 30 minutes, then glutamate was added. After 24 hours, phase contrast microscope was used to observe neuronal morphologies. […] The activity of lactate dehydrogenase (LDH) was also determined for each group. […]

[2] = tested on: cortical neurons; assay: Hypoxia-induced damage of cortical neurons; settings: hypoxia 1% oxygen, 12 hours; pretreated 30 min, MK801 10 μM, YC-6 different concentrations; compared with the control group
Method: (§1) Cortex with meninges and blood vessels removed were obtained from newborn (1-day old) rats. 0.05 g/L DNase I was used to pipette the cell to single cell suspension following 0.25 g/L trypsin digestion. The suspension was then centrifuged to collect precipitation and diluted it with DMEM-F12 medium containing 5% (v/v) FBS and 2% B27. The cell was seeded on dishes pre-coated with poly-lysine. 24 hours following the seeding, 10 μM Ara-C was added to inhibit growth and proliferation of non-neuron cells. Half medium change was performed 2-3 times per week. Experiments were carried out on the 10 DIV.
The primary cultured cortical neurons at 10 DIV were divided into four groups: control group, hypoxia group, MK801+ hypoxia group, and YC-6+ hypoxia group. 3 duplicates wells were provided for each group. The control group was incubated in CO2 normoxic incubator. […]
The treatment was performed in 96-well plates. […] The crystals were dissolved after half an hour and OD value was detected at 570 nm wavelength by Microplates-Reader. 50 μL of culture medium was obtained from all groups at different time points and LDH release was determined for each well according to the supplier's instructions. Data were presented as the mean±SD, one-way ANOVA and statistically analyzed using paired-samples t-test and analysis of variance among means of multiple samples. […]

[3] = tested on: cerebellar granule neurons; assay: Glutamate-induced excitotoxicity of cerebellar granule neurons; settings: 200 μM glutamate, 24 hours
Method: Cerebella with meninges and blood vessels removed were obtained from 7-8 days old rats weighted 15-20 g. 0.05 g/L DNase I was used to pipette the cell to single cell suspension following 0.25 g/L trypsin digestion. The suspension was then centrifuged to collect precipitation and resuspended with BME medium containing 10% (v/v) FBS and 25 mM KCl. The cells were then seeded on dishes pre-coated with poly-lysine. 24 hours following the seeding, 10 μM Ara-C was added to inhibit growth and proliferation of non-neuron cells, such that the cerebellar granule neurons have purity not less than 95%. Glucose was added during culture to provide supplementary energy for cellular metabolism. Experiments were carried out at 8 DIV.
(§2) The cerebellar granule neurons cultured for 8 days were divided into four groups: control group, glutamate group, MK801+glutamate group, and YC-6+glutamate group. The control group received no treatment. The glutamate group was treated with 200 μM glutamate. The MK801 group and the YC-6 group were pre-treated with MK801 (10 μM) and YC-6 with different concentrations, respectively, followed by incubation at 37° C. for 30 minutes, then glutamate was added. After 24 hours, phase contrast microscope was used to observe neuronal morphologies. The cells were stained by FDA and observed under inverted fluorescent microscope for cell counting to calculate survival rate of neurons. The activity of lactate dehydrogenase (LDH) was also determined for each group. Survival Rate=Number of live cells for each group/Number of live cells in the control group*100%

[4] = tested on: cortical neurons; assay: Glutamate-induced excitotoxicity of cortical neurons; settings: 200 μM glutamate, 24 hours
Method: as §1
as §2, with “primary cultured cortical” for “cerebellar granule”, “at 10 DIV” for “cultured for 8 days”, “nM)” for “μM)”

Compound: C[C@]12N[C@H](Cc3ccccc31)c1ccccc12 [MK801]
- number of spinal motor neurons (phase contrast microscope) [1]: significantly increased
- morphology of cortical neuronal cells [2]: no difference in morphology
- survival rate of neurons ([3]; FDA staining, pre-treated 30 minutes, MK801 10 μM, YC-6 different concentrations, vs glutamate group): increased survival rate
- neuronal morphology (phase contrast microscope) ([3]; majority of neurons): maintain the integrity of soma and processes
- LDH release ([3]; pre-treated 30 minutes, MK801 10 μM, YC-6 different concentrations, vs glutamate group): decreased LDH release
- survival rate of neurons ([4]; FDA staining, pre-treated 30 minutes, MK801 10 nM, YC-6 different concentrations, vs glutamate group): increased survival rates
- neuronal morphology (phase contrast microscope) ([4]; a great number of neurons): maintained intact soma and neurites
- LDH release ([4]; pre-treated 30 minutes, MK801 10 nM, YC-6 different concentrations, vs glutamate group): decreased LDH release
